Laboratory results reported in paper PMC6151385, “Simultaneous Determination of Seven Phenolic Acids in Rat Plasma Using UHPLC-ESI-MS/MS after Oral Administration of Echinacea purpurea Extract” (Molecules : A Journal of Synthetic Chemistry and Natural …, 2017).

assay: Stability of the analytes in rat plasma QC samples under different storage conditions; type: physicochemical; settings: post-preparation samples, high QC, 12 h at 4 °C, n = 6
Method: The post-preparation samples were analyzed after storage for 12 h at 4 °C. The peak area ratio response of stability samples was determined and versus those freshly prepared. For all stability results, the analyzing samples were considered stable when the percentage of relative error (RE) was within ±15% compared with freshly prepared QC samples.

SMILES	Stability (RE%) Post-Preparative [%]
O=C(O)c1ccc(O)c(O)c1 [3,4-Dihydroxy benzoic acid, 3,4-dihydroxybenzoic acid]	−4.01
O=C(O)c1ccc(O)cc1 [4-Hydroxy benzoic acid, 4-hydroxybenzoic acid]	7.71
O=C(O)/C=C/c1ccc(O)c(O)c1 [Caffeic acid, caffeic acid]	9.83

same assay, conditions: post-preparation samples, low QC, 12 h at 4 °C, n = 6

SMILES	Stability (RE%) Post-Preparative [%]
O=C(O)c1ccc(O)c(O)c1 [3,4-Dihydroxy benzoic acid, 3,4-dihydroxybenzoic acid]	9.29
O=C(O)c1ccc(O)cc1 [4-Hydroxy benzoic acid, 4-hydroxybenzoic acid]	−6.42
O=C(O)/C=C/c1ccc(O)c(O)c1 [Caffeic acid, caffeic acid]	10.35

same assay, conditions: post-preparation samples, medium QC, 12 h at 4 °C, n = 6

SMILES	Stability (RE%) Post-Preparative [%]
O=C(O)c1ccc(O)c(O)c1 [3,4-Dihydroxy benzoic acid, 3,4-dihydroxybenzoic acid]	−5.47
O=C(O)c1ccc(O)cc1 [4-Hydroxy benzoic acid, 4-hydroxybenzoic acid]	10.47
O=C(O)/C=C/c1ccc(O)c(O)c1 [Caffeic acid, caffeic acid]	3.89

assay: Pharmacokinetic study of seven phenolic acids in rat plasma after oral administration of E. purpurea extract (UHPLC-ESI-MS/MS); type: in vivo; settings: Sprague-Dawley, rat, male SD rats, oral E. purpurea extract 10 g/kg, n = 12, mean ± SD
Method: Twelve male Sprague-Dawley (SD) rats (body weight 220 ± 20 g) were provided by Heilongjiang University of Chinese Medicine (Harbin, China). Each rat fasted 12 h before administration, with free drinking during the experiment. Blood samples were obtained from rats after oral administration of the extract of E. purpurea with a dose of 10 g/kg body weight. Blood samples (0.25 mL) of the retinal venous plexus were taken at 0.083, 0.25, 0.75, 1.0, 1.5, 2, 3, 4, 6, 8, 12, 24 and 36 h, then moved immediately into a 0.5 mL centrifuge tube that was spread with heparin at each time point. Meanwhile, the animal blood was centrifuged at 13,000 rpm for 5 min at 4 °C. The plasma was frozen in a −20 °C refrigerator in case of deterioration.
First, the frozen plasma was thawed at room temperature and then a liquid–liquid extraction (LLE) method was utilized. Then, a 100 μL aliquot of each plasma sample was removed except for the calibration standards which was mixed with 10 μL IS into a 10 mL glass tube. We continued by adding 100 μL methanol and 100 μL 30% formic acid, vortex-mixing for 1 min, then extracted 3 mL ethyl acetate, vortex-mixing for 3 min, centrifuged for 5 min (3500 rpm), and transferred the upper organic layer into a new tube. The layer of ethyl acetate was dried with a stream of nitrogen, the dry residue was dissolved with a 100 μL mobile phase, vortexed for 2 min and samples were filtered by a 0.22 μm microporous membrane. A 10 μL aliquot was injected into the UHPLC-ESI-MS/MS system.
The rat plasma concentration-time curves of seven compounds were plotted. After oral administration of E. purpurea extract in twelve rats, the maximum drug concentration in rat plasma (Cmax) and the time to reach maximum drug concentration (Tmax) were directly obtained from concentration-time data. The elimination rate constant (Ke) was calculated by linear regression of the terminal points in a semi-log plot of the plasma concentration against time. The elimination half-life (T1/2) was calculated by the formula T1/2 = 0.693/Ke. Other pharmacokinetic parameters including the area under the concentration-time curve (AUC0→t), and the area under the plasma concentration-time curve to time infinity (AUC0→∞) were calculated using non-compartmental pharmacokinetics analysis.

SMILES	AUC(0-inf) [ng·h/mL]	AUC(0-t) [ng·h/mL]	Cmax [ng/mL]	Tmax [h]	half-life [h]
O=C(O)c1ccc(O)c(O)c1 [3,4-Dihydroxy benzoic acid, 3,4-dihydroxybenzoic acid]	2050 ± 116	1930 ± 123	127 ± 18.1	0.77 ± 0.07	7.45 ± 0.87
O=C(O)c1ccc(O)cc1 [4-Hydroxy benzoic acid, 4-hydroxybenzoic acid]	1950 ± 176	1640 ± 122	145 ± 11.6	1.96 ± 0.14	14.9 ± 5.37
O=C(O)/C=C/c1ccc(O)c(O)c1 [Caffeic acid, caffeic acid]	9330 ± 442	9220 ± 453	855 ± 35.9	8	5.31 ± 0.5

assay: Stability of the analytes in rat plasma QC samples under different storage conditions; type: physicochemical; settings: high QC, 4 h at room temperature, n = 6

SMILES	Stability (RE%) Short-Term [%]
O=C(O)c1ccc(O)c(O)c1 [3,4-Dihydroxy benzoic acid, 3,4-dihydroxybenzoic acid]	4.80
O=C(O)c1ccc(O)cc1 [4-Hydroxy benzoic acid, 4-hydroxybenzoic acid]	−2.50
O=C(O)/C=C/c1ccc(O)c(O)c1 [Caffeic acid, caffeic acid]	6.12

same assay, conditions: high QC, three freeze-thaw cycles (−20 °C / ambient), n = 6

SMILES	Stability (RE%) Freeze-Thaw [%]
O=C(O)c1ccc(O)c(O)c1 [3,4-Dihydroxy benzoic acid, 3,4-dihydroxybenzoic acid]	−0.52
O=C(O)c1ccc(O)cc1 [4-Hydroxy benzoic acid, 4-hydroxybenzoic acid]	−1.01
O=C(O)/C=C/c1ccc(O)c(O)c1 [Caffeic acid, caffeic acid]	6.15

same assay, conditions: high QC, −20 °C for 2 weeks, n = 6

SMILES	Stability (RE%) Long-Term [%]
O=C(O)c1ccc(O)c(O)c1 [3,4-Dihydroxy benzoic acid, 3,4-dihydroxybenzoic acid]	3.65
O=C(O)c1ccc(O)cc1 [4-Hydroxy benzoic acid, 4-hydroxybenzoic acid]	2.81
O=C(O)/C=C/c1ccc(O)c(O)c1 [Caffeic acid, caffeic acid]	−1.54

same assay, conditions: low QC, 4 h at room temperature, n = 6

SMILES	Stability (RE%) Short-Term [%]
O=C(O)c1ccc(O)c(O)c1 [3,4-Dihydroxy benzoic acid, 3,4-dihydroxybenzoic acid]	2.03
O=C(O)c1ccc(O)cc1 [4-Hydroxy benzoic acid, 4-hydroxybenzoic acid]	10.62
O=C(O)/C=C/c1ccc(O)c(O)c1 [Caffeic acid, caffeic acid]	7.45

same assay, conditions: low QC, three freeze-thaw cycles (−20 °C / ambient), n = 6

SMILES	Stability (RE%) Freeze-Thaw [%]
O=C(O)c1ccc(O)c(O)c1 [3,4-Dihydroxy benzoic acid, 3,4-dihydroxybenzoic acid]	−0.11
O=C(O)c1ccc(O)cc1 [4-Hydroxy benzoic acid, 4-hydroxybenzoic acid]	10.03
O=C(O)/C=C/c1ccc(O)c(O)c1 [Caffeic acid, caffeic acid]	7.79

same assay, conditions: low QC, −20 °C for 2 weeks, n = 6

SMILES	Stability (RE%) Long-Term [%]
O=C(O)c1ccc(O)c(O)c1 [3,4-Dihydroxy benzoic acid, 3,4-dihydroxybenzoic acid]	−2.93
O=C(O)c1ccc(O)cc1 [4-Hydroxy benzoic acid, 4-hydroxybenzoic acid]	−3.31
O=C(O)/C=C/c1ccc(O)c(O)c1 [Caffeic acid, caffeic acid]	6.01

same assay, conditions: medium QC, 4 h at room temperature, n = 6

SMILES	Stability (RE%) Short-Term [%]
O=C(O)c1ccc(O)c(O)c1 [3,4-Dihydroxy benzoic acid, 3,4-dihydroxybenzoic acid]	10.18
O=C(O)c1ccc(O)cc1 [4-Hydroxy benzoic acid, 4-hydroxybenzoic acid]	−0.46
O=C(O)/C=C/c1ccc(O)c(O)c1 [Caffeic acid, caffeic acid]	−0.16

same assay, conditions: medium QC, three freeze-thaw cycles (−20 °C / ambient), n = 6

SMILES	Stability (RE%) Freeze-Thaw [%]
O=C(O)c1ccc(O)c(O)c1 [3,4-Dihydroxy benzoic acid, 3,4-dihydroxybenzoic acid]	6.57
O=C(O)c1ccc(O)cc1 [4-Hydroxy benzoic acid, 4-hydroxybenzoic acid]	2.63
O=C(O)/C=C/c1ccc(O)c(O)c1 [Caffeic acid, caffeic acid]	2.18

same assay, conditions: medium QC, −20 °C for 2 weeks, n = 6

SMILES	Stability (RE%) Long-Term [%]
O=C(O)c1ccc(O)c(O)c1 [3,4-Dihydroxy benzoic acid, 3,4-dihydroxybenzoic acid]	2.30
O=C(O)c1ccc(O)cc1 [4-Hydroxy benzoic acid, 4-hydroxybenzoic acid]	0.21
O=C(O)/C=C/c1ccc(O)c(O)c1 [Caffeic acid, caffeic acid]	1.00
